This passage reports IC50 and inhibition in vivo results from patent US9012431B2, “Boron-containing small molecules as anti-inflammatory agents” (Anacor Pharmaceuticals, Inc., priority 2008, dated 2015).

The structures appear in SMILES notation. Where a name gives a salt, the structure may show the parent alone. Where only a bound is given, the exact number is not on record here.

In one assay the test system is TNF-α. Briefly: Cytokine assay, TNF-α release from PBMC. The assay is classed as cell-based. The following applies: Homo sapiens, PBMC, 24 h, 1 μg/mL LPS, supernatant at 24 hours. A digest of the protocol: (§1)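 Using previously frozen human PBMC resuspended in medium of RPMI 1640 supplemented with 10% FBS, test article at 10, 1, 0.1 and 0.01 μM was evaluated in triplicate; DMSO stock was 10 mM.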

In the next assay the test system is IL-2. Briefly: Cytokine assay, IL-2 release from PBMC. In kind it is cell-based. As to conditions: human PBMC, 20 ug/mL PHA, supernatant at 24 hours. A digest of the protocol:
as §1

For another assay, the system named is IFN-γ. In words: Cytokine assay, IFN-γ release from PBMC. The following applies: human PBMC, 20 ug/mL PHA, supernatant at 24 hours. In kind it is cell-based. A digest of the protocol:
as §1

The next assay has as its system IL-5. Briefly: Cytokine assay, IL-5 release from PBMC. In kind it is cell-based. As to conditions: human PBMC, 20 ug/mL PHA, supernatant at 48 hours. The essentials: as §1
Another assay relates to IL-10. Briefly: Cytokine assay, IL-10 release from PBMC. As to conditions: human PBMC, 20 ug/mL PHA, supernatant at 48 hours. The assay is classed as cell-based. The essentials:
as §1

Assay [1] has as its system T1, PDE4 partially purified from human U-937 myeloid leukemia cells.
T1 construct: PDE4 partially purified from human U-937 myeloid leukemia cells was used
In words: PDE4 Assay (enzyme from U-937 cells, [3H]cAMP). The assay is classed as biochemical. The following applies: PDE4 from U-937 cells, Tris buffer pH 7.5, 20 minutes at 25° C.

Assay [2] concerns CD-1 (Crl.) derived male mice. Briefly: Phorbol Ester Induced Mouse Ear Edema Model. The assay is classed as in vivo. As to conditions: topical, 6 h; for inhibition in vivo at 3 mg: 3 mg/ear × 2 topical; for inhibition in vivo at 0.02 mg: 0.02 mg/ear × 2 topical; for inhibition in vivo at 0.06 mg: 0.06 mg/ear × 2 topical; for inhibition in vivo at 0.2 mg: 0.2 mg/ear × 2 topical. How it is done:
1. In Vivo Anti-Inflammation Activity in Phorbol Ester Induced Mouse Ear Edema Model
[…] Dexamethasone (1 mg/ear×2) used as the positive control was administered topically to test animals using the same application schedule. Ear swelling was then measured by a Dyer model micrometer gauge at 6 hours after PMA application as an index of inflammation. Percent inhibition was calculated according to the formula: [(Ic−It)/Ic]×100%, where Ic and It refer to increase of ear thickness (mm) in control and treated mice, respectively.

Where [3] appears, read: 1 mg/ear × 2 topical, Acetone:Ethanol/1:1, ear swelling 6 hours after PMA.
Where [4] appears, read: 1 mg/ear topical, Acetone:Ethanol/1:1, ear swelling 6 hours after PMA.
Setting [5] is: 1 mg/ear × 2 topical, vehicle not given, ear swelling 6 hours after PMA.
[6] abbreviates: 95% Ethanol, ear swelling 6 hours after PMA.

Turning to `N#Cc1ccc(Oc2ccc3c(c2)COB3O)cc1O` [D10, 5-(4-Cyano-3-hydroxyphenoxy)-1,3-dihydro-1-hydroxy-2,1-benzoxaborole], the IC50 (as a rule, the concentration that inhibits the measured activity by half) was less than 1000 nM in the assay on TNF-α; 4000 to 10000 nM in the assay on IL-2; 4000 to 10000 nM in the assay with IFN-γ; 4000 to 10000 nM in the assay on IL-5; 1000 to 4000 nM in the assay on IL-10; 1000 to 4000 nM in assay [1]. The inhibition in vivo – broadly, the percentage by which the read-out fell short of the control – at 1 mg in assay [2] (setting [3]) fell in the range of 60 to 90%.

As to `N#Cc1ccc(Oc2ccc3c(c2)COB3O)c(O)c1` [D14, 5-(4-Cyano-2-hydroxyphenoxy)-1,3-dihydro-1-hydroxy-2,1-benzoxaborole], the 50% inhibitory concentration (IC50) is less than 1000 nM with TNF-α; less than 1000 nM in the assay on IL-2; less than 1000 nM with IFN-γ; less than 1000 nM with IL-5; 1000 to 4000 nM in the assay on IL-10; less than 1000 nM in assay [1]. The compound also had an inhibition in vivo at 0.05 mg in assay [2] (0.05 mg/ear × 2 topical, 95% Ethanol, ear swelling 6 hours after PMA) of less than 30%. For the same compound, in assay [2] (0.17 mg/ear × 2 topical, 95% Ethanol, ear swelling 6 hours after PMA), the inhibition in vivo at 0.17 mg was less than 30%. Also, in assay [2] (0.51 mg/ear × 2 topical, 95% Ethanol, ear swelling 6 hours after PMA), the inhibition in vivo at 0.51 mg was less than 30%. For the same compound, the inhibition in vivo at 1 mg in assay [2] (1 mg/ear × 2 topical, 95% Ethanol, ear swelling 6 hours after PMA) is less than 30%; in assay [2] (setting [3]), less than 30%.

`N#Cc1ccc(Oc2ccc3c(c2)COB3O)c(CO)c1` [D24, 5-[4-Cyano-2-(hydroxymethyl)phenoxy]-1,3-dihydro-1-hydroxy-2,1-benzoxaborole] had an IC50 in the assay with TNF-α of 1000 to 4000 nM. In addition, in assay [2] (setting [3]), the inhibition in vivo at 1 mg lay in the range of 60 to 90%.

`CN1CCN(C(=O)COc2cc(C#N)ccc2Oc2ccc3c(c2)COB3O)CC1` [D29, 4-(2-(5-cyano-2-(1-hydroxy-1,3-dihydrobenzo[c][1,2]oxaborol-5-yloxy)phenoxy)acetyl)-1-methylpiperazine hydrochloride]: the IC50 was less than 1000 nM with TNF-α; less than 1000 nM in the assay with IL-2; less than 1000 nM in the assay with IFN-γ; less than 1000 nM with IL-5; more than 10000 nM with IL-10; less than 1000 nM in assay [1]. This compound also came in with an inhibition in vivo at 1 mg in assay [2] (setting [3]) of less than 30%.

In the assay with TNF-α, `N#Cc1ccc(Oc2ccc3c(c2)COB3O)c(OCc2ccccn2)c1` [D31, 2-((5-cyano-2-(1-hydroxy-1,3-dihydrobenzo[c][1,2]oxaborol-5-yloxy)phenoxy)methyl)pyridine hydrochloride] came in with an IC50 of 1000 to 4000 nM. The inhibition in vivo at 1 mg in assay [2] (setting [3]) lay in the range of 30 to 60%.

Regarding `N#Cc1ccc(Oc2ccc3c(c2)COB3O)c(CN2CCOCC2)c1` [D32, 4-(5-cyano-2-1-hydroxy-1,3-dihydrobenzo[c][1,2]oxaborol-5-yloxy)benzyl)morpholine hydrochloride], the half-maximal inhibitory concentration (IC50) (with TNF-α; in the assay on IL-2; with IFN-γ; in the assay with IL-5; in the assay with IL-10; in assay [1]) was less than 1000 nM each time. In addition, the inhibition in vivo at 1 mg in assay [2] (setting [4]) and in assay [2] (setting [3]) was less than 30% throughout.

Consider `CN1CCN(Cc2cc(C#N)ccc2Oc2ccc3c(c2)COB3O)CC1` [D33, 1-(5-cyano-2-(1-hydroxy-1,3-dihydrobenzo[c][1,2]oxaborol-5-yloxy)benzyl)-4-methylpiperazine-1,4-diium], for which the half-maximal inhibitory concentration (IC50) (in the assay on TNF-α; with IL-2; in the assay on IFN-γ; with IL-5; in the assay with IL-10; in assay [1]) was less than 1000 nM each time. Further, in assay [2] (setting [4]), the inhibition in vivo at 1 mg was less than 30%.

With `CN(C)Cc1cc(C#N)ccc1Oc1ccc2c(c1)COB2O` [D34, 1-(5-cyano-2-(1-hydroxy-1,3-dihydrobenzo[c][1,2]oxaborol-5-yloxy)phenyl)-N,N-dimethylmethanaminium], the IC50 in the assay with TNF-α is 1000 to 4000 nM; in the assay on IL-2, less than 1000 nM; with IFN-γ, less than 1000 nM; with IL-5, 1000 to 4000 nM; with IL-10, 1000 to 4000 nM; in assay [1], 1000 to 4000 nM. The compound also came in with an inhibition in vivo at 1 mg in assay [2] (setting [4]) of less than 30%.

In the case of `COC(=O)c1ccc(Oc2ccc3c(c2)COB3O)c(F)c1` [D50, 5-(2-Fluoro-4-methoxycarbonylphenoxy)-1-hydroxy-2,1-benzoxaborole], the IC50 was less than 1000 nM with TNF-α; less than 1000 nM in the assay with IL-2; less than 1000 nM in the assay on IFN-γ; 1000 to 4000 nM in the assay on IL-5; 4000 to 10000 nM with IL-10; less than 1000 nM in assay [1]. The same compound returned an inhibition in vivo at 1 mg in assay [2] (setting [3]) of 60 to 90%.

For the compound `CCNC(=O)c1ccc(Oc2ccc3c(c2)COB3O)nc1` [D63, N-Ethyl-6-(1-hydroxy-1,3-dihydrobenzo[c][1,2]oxaborol-5-yloxy) nicotinamide], the IC50 is less than 1000 nM in the assay with TNF-α; less than 1000 nM in the assay with IL-2; 1000 to 4000 nM in the assay on IFN-γ; 1000 to 4000 nM with IL-5; 1000 to 4000 nM in the assay on IL-10; less than 1000 nM in assay [1]. The compound also registered an inhibition in vivo at 1 mg in assay [2] (setting [3]) of less than 30%.

As for `COC(=O)c1ccc(Oc2ccc3c(c2)COB3O)nc1` [D65, Methyl 6-(1-hydroxy-1,3-dihydrobenzo[c][1,2]oxaborol-5-yloxy)nicotinate], the IC50 (with TNF-α; in the assay with IL-2; in the assay with IFN-γ; in the assay on IL-5; in the assay with IL-10; in assay [1]) was less than 1000 nM throughout. The compound also displayed an inhibition in vivo at 1 mg in assay [2] (setting [3]) of 30 to 60%.

In the case of `O=Cc1ccc(Oc2ccc3c(c2)COB3O)nc1` [D69, 6-(1-Hydroxy-1,3-dihydrobenzo[c][1,2]oxaborol-5-yloxy)nicotinaldehyde], the IC50 with TNF-α was 1000 to 4000 nM; in the assay on IL-2 it was 1000 to 4000 nM; with IFN-γ, 1000 to 4000 nM; in assay [1], less than 1000 nM. Moreover, the inhibition in vivo at 1 mg in assay [2] (setting [5]) was 30 to 60%.

Regarding `CCCOC(=O)c1ccc(Oc2ccc3c(c2)COB3O)cc1` [D73, 4-(1-Hydroxy-1,3-dihydro-benzo[c][1,2]oxaborol-5-yloxy)-benzoic acid propyl ester], the IC50 with TNF-α is 1000 to 4000 nM; with IL-2, 1000 to 4000 nM; in the assay on IFN-γ it was 4000 to 10000 nM; with IL-5, 1000 to 4000 nM; with IL-10, more than 10000 nM; in assay [1], less than 1000 nM. Moreover, the inhibition in vivo at 1 mg in assay [2] (setting [5]) fell in the range of 30 to 60%. The same compound had an inhibition in vivo at 3 mg in assay [2] (vehicle not given, ear swelling 6 hours after PMA) of 60 to 90%.

Regarding `COCCOc1nc(Oc2ccc3c(c2)COB3O)ccc1C#N` [D86], the 50% inhibitory concentration (IC50) (in the assay with TNF-α; in the assay with IL-2; in the assay on IFN-γ; with IL-5; in the assay with IL-10; in assay [1]) was less than 1000 nM throughout. For the same compound, in assay [2] (0.063 mg/ear × 2 topical, 95% Ethanol, ear swelling 6 hours after PMA), the inhibition in vivo at 0.063 mg is less than 30%. This compound also yielded an inhibition in vivo at 0.21 mg in assay [2] (0.21 mg/ear × 2 topical, 95% Ethanol, ear swelling 6 hours after PMA) of less than 30%. In assay [2] (0.63 mg/ear × 2 topical, 95% Ethanol, ear swelling 6 hours after PMA), this compound came in with an inhibition in vivo at 0.63 mg of less than 30%. Besides, the inhibition in vivo at 3 mg in assay [2] (setting [6]) is less than 30%.

For the compound `CN(C)c1nc(Oc2ccc3c(c2)COB3O)ccc1C#N` [D95, 2-Dimethylamino-6-(1-hydroxy-1,3-dihydro-benzo[c][1,2]oxaborol-5-yloxy)-nicotinonitrile], the IC50 with TNF-α was less than 1000 nM; in the assay on IL-2 it was less than 1000 nM; in the assay on IFN-γ, less than 1000 nM; in the assay with IL-5 it was less than 1000 nM; in the assay with IL-10, 1000 to 4000 nM; in assay [1] it was less than 1000 nM. Besides, the inhibition in vivo at 0.02 mg in assay [2] (setting [6]) is less than 30%. The compound further yielded an inhibition in vivo at 0.06 mg in assay [2] (setting [6]) of less than 30%. This compound also displayed an inhibition in vivo at 0.2 mg in assay [2] (setting [6]) of less than 30%.

Regarding `CN(CCO)c1ccc(C#N)c(Oc2ccc3c(c2)COB3O)n1` [D98, 2-(1-hydroxy-1,3-dihydro-benzo[c][1,2]oxaborol-5-yloxy)-6-[(2-hydroxy-ethyl)-methyl-amino]-nicotinonitrile], the IC50 (in the assay on TNF-α; with IL-2; in the assay with IFN-γ; with IL-5; in the assay on IL-10; in assay [1]) was less than 1000 nM throughout. In assay [2] (setting [6]), this compound returned an inhibition in vivo at 0.02 mg of less than 30%. In assay [2] (setting [6]), this compound had an inhibition in vivo at 0.06 mg of less than 30%. Besides, the inhibition in vivo at 0.2 mg in assay [2] (setting [6]) was 30 to 60%.

On to `N#Cc1ccc(Oc2ccc3c(c2)COB3O)nc1OC1CCCC1` [D100, 2-Cyclopentyloxy-6-(1-hydroxy-1,3-dihydro-benzo[c][1,2]oxaborol-5-yloxy)-nicotinonitrile], for which the IC50 (in the assay on TNF-α; with IL-2; in the assay with IFN-γ; with IL-5; in the assay on IL-10; in assay [1]) was less than 1000 nM throughout. Besides, in assay [2] (0.028 mg/ear × 2 topical, 95% Ethanol, ear swelling 6 hours after PMA), the inhibition in vivo at 0.028 mg is less than 30%. The inhibition in vivo at 0.28 mg in assay [2] (0.28 mg/ear × 2 topical, 95% Ethanol, ear swelling 6 hours after PMA) was in the range of 30 to 60%.
